Where a SMILES comes first, the peptide text is derived from it. [ ]: non-standard residue; d: D form. pT = C[C@@H](OP(=O)(O)O)[C@H](N)C(=O)O; pS = N[C@@H](COP(=O)(O)O)C(=O)O
Legend:
14-3-3η [1] = molecular target: T1, 14-3-3η (Homo sapiens, UniProt Q04917); test: direct binding FP assay, 14-3-3η
T1 construct: N-terminally His6-tagged 14-3-3 full-length proteins were expressed with heterologous bacterial expression; made in house
T1 sequence (Q04917 1-246): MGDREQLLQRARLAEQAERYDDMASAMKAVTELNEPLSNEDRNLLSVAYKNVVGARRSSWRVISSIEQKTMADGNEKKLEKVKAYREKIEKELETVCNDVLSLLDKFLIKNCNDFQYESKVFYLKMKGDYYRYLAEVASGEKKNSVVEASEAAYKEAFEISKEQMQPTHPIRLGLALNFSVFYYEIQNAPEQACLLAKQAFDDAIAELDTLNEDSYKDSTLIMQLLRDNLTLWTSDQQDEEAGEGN
Description: (§1) For the FP assay, the 14-3-3 proteins were diluted to a protein-specific start concentration in FP buffer (10 mM HEPES, pH 7.4, 150 mM NaCl, 2 mM DTT, 0.01% Tween 20). DMSO stocks of peptides were diluted in FP buffer to a concentration of 30 nM. For the assay, 10 μl of FP buffer were pipetted in 20 wells of a 384-well Corning black round bottom plate. A dilution series with 10 μl of protein solution was performed, and 5 μl of peptide solution was added to each well for a final volume of 15 μl. The plate was incubated for 60 min at room temperature. Measurement was performed at 25 °C in a Tecan Spark20M plate reader (λex = 470 nm, λem = 525 nm). Data analysis was performed with GraphPad Prism (version 5.03), and KD values were determined via a nonlinear regression fit of dose-response curves with variable slope (four parameters).

14-3-3β/α = molecular target: T2, 14-3-3β/α (Homo sapiens, UniProt P31946); test: direct binding FP assay, 14-3-3β/α; conditions: FITC-labeled peptide, Fig. 2C and Fig. S1
T2 construct: N-terminally His6-tagged 14-3-3 full-length proteins were expressed with heterologous bacterial expression; made in house
T2 sequence (P31946 1-246): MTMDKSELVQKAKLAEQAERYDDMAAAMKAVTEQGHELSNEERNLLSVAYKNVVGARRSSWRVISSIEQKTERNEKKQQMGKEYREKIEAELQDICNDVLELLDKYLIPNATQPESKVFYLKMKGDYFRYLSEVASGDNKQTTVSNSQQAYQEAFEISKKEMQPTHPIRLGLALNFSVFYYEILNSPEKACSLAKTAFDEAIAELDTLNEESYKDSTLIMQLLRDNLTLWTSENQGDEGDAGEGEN
Description: as §1

14-3-3η [2] = molecular target: T1, 14-3-3η; test: isothermal titration calorimetry (ITC) with 14-3-3η; format: binding; conditions: T = 298 K; peptide per 14-3-3 protomer; mean ± S.D., n = 3
Description: The ITC experiments were performed on an automated MicroCal iTC200 (Malvern Panalytical). To prepare 14-3-3 proteins for ITC measurements, a buffer exchange to ITC buffer (50 mM HEPES, pH 7.4, 250 mM NaCl, 20 mM MgCl2) was performed on a Superdex 75 10/300 GL column (ÄKTA Pure FPLC system, GE Healthcare). For peptides 1, 7, and 17, a 500 μM solution of protein was titrated to a 50 μM solution of peptide in 18 steps (2-μl volume in 4 s, 180-s spacing) at 25 °C. For peptide 11, a 250 μM solution of protein was titrated to a 12.5 μM solution of peptide with the settings mentioned before. The reference power was set to […], and the stirring speed was set to 750 rpm. Analysis was performed using MicroCal ITC-ORIGIN analysis software.

His6-14-3-3η = test: pulldown of His6-14-3-3η from E. coli cell lysate with biotinylated peptides; format: binding, human; conditions: biotinylated peptide on streptavidin beads; NTA-Atto488 stained SDS-PAGE, Fig. 2E
Description: (§2) 14-3-3–overexpressing E. coli cell lysate was prepared by lysing E. coli cells via sonication in pulldown buffer and removing cell debris by ultracentrifugation (53,350 rcf, 45 min, 4 °C). 24 nmol of Streptavidin Sepharose High Performance beads (GE Healthcare) were equilibrated with pulldown buffer (50 mM HEPES, pH 7.4, 250 mM NaCl, 20 mM MgCl2) and incubated with 24 nmol of biotin-1, biotin-6, or no peptide for 45 min on ice. Afterward, the beads were washed three times with pulldown buffer. Subsequently, the beads were incubated for 120 min in the prepared cell lysate. After incubation, beads were washed three times with pulldown buffer and split in half either for direct SDS-PAGE or for competition analysis, respectively. For competition, beads incubated with biotin-1 were incubated with 96 nmol of acetylated peptide 1 for 60 min and washed three times with pulldown buffer. For SDS-PAGE, 6 nmol of beads were added per lane on a Tris-Tricine ([52]) gel and run for 120 min at 150 V. After electrophoresis, gel was fixated for 90 min in a solution of 50% water, 40% EtOH, and 10% acetic acid and consequently washed two times for 30 min in water. Staining of the His6-tagged proteins in the gel was performed in a 1:1000 dilution of a 1 μg/μl solution of NTA-Atto488 (Sigma–Aldrich) for 60 min. Access stain was removed by two washing steps, each 60 min, in water. […]

His6-14-3-3β/α = test: pulldown of His6-14-3-3β/α from E. coli cell lysate with biotinylated peptides; format: binding, human; conditions: biotinylated peptide on streptavidin beads; NTA-Atto488 stained SDS-PAGE, Fig. S2B
Description: as §2

14-3-3σ = molecular target: T3, 14-3-3σ (Homo sapiens, UniProt P31947); test: direct binding fluorescence polarization (FP) assay, 14-3-3σ; conditions: FITC-labeled peptide; Fig. 2A
T3 construct: N-terminally His6-tagged 14-3-3 full-length proteins were expressed with heterologous bacterial expression; made in house
T3 sequence (P31947 1-248): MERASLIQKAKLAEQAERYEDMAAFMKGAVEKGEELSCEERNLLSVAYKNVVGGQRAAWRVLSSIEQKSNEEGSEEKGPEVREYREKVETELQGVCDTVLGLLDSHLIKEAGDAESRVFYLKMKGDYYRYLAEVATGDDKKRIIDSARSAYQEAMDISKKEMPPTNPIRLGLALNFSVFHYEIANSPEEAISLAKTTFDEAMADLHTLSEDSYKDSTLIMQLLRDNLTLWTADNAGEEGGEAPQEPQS
Description: as §1

| Compound | relative affinity of 14-3-3η compared with 14-3-3σ (relative affinity = 1) (14-3-3η [1]; FP assay, FITC-labeled peptide, Fig. 2C and Fig. S1) | relative affinity of 14-3-3β/α compared with 14-3-3σ (relative affinity = 1) (14-3-3β/α) | binding stoichiometry N (ITC, 14-3-3η) (14-3-3η [2]) | pulldown of His6-14-3-3η (in words) (His6-14-3-3η) | pulldown of His6-14-3-3β/α (in words) (His6-14-3-3β/α) | increase in overall affinity of 7 versus 11 (14-3-3η, FP) (14-3-3η [1]; pThr^63 combined with site 1, Fig. 4A and Fig. S3) | binding toward 14-3-3σ in direct FP assay (in words) (14-3-3σ) |
| --- | --- | --- | --- | --- | --- | --- | --- |
| CC(=O)N[C@@H](CC(N)=O)C(=O)N[C@@H](CCCCN)C(=O)N[C@@H](CC(N)=O)C(=O)N[C@@H](C)C(=O)N[C@@H](CC(N)=O)C(=O)N[C@@H](COP(=O)(O)O)C(=O)N[C@@H](CO)C(=O)N1CCC[C@H]1C(=O)N[C@H](C(=O)O)C(C)C [compound 1] (Ac-NKNAN[pS]SPV-OH) | 18.6 fold | 5.7 fold | 1.05 ± 0.02 | binds specifically | binds specifically |  |  |
| CC(=O)N[C@@H](CCC(=O)O)C(=O)N[C@@H](CCCCN)C(=O)N[C@@H](CC(N)=O)C(=O)N[C@@H](CCCCN)C(=O)N[C@@H](CC(N)=O)C(=O)N[C@@H](C)C(=O)N[C@@H](CC(N)=O)C(=O)N[C@@H](COP(=O)(O)O)C(=O)N[C@@H](CO)C(=O)N1CCC[C@H]1C(=O)N[C@H](C(=O)N[C@@H](C)C(=O)N[C@@H](CO)C(=O)N[C@H](C(=O)N[C@H](C(=O)N1CCC[C@H]1C(=O)N[C@@H](CO)C(=O)N[C@@H](C)C(=O)N[C@@H](CO)C(=O)N[C@@H](C)C(=O)N[C@H](C(=O)N[C@H](C(=O)N[C@@H](CC(N)=O)C(=O)N1CCC[C@H]1C(=O)N[C@@H](C)C(=O)N[C@@H](CO)C(=O)N[C@@H](C)C(=O)N[C@H](C(=O)N[C@H](C(=O)N[C@@H](CC(C)C)C(=O)N[C@@H](CC(=O)O)C(=O)N[C@@H](CCC(N)=O)C(=O)N[C@@H](CO)C(=O)N[C@@H](CCCCN)C(=O)N[C@@H](C)C(=O)N[C@@H](Cc1c[nH]c2ccccc12)C(=O)N[C@@H](CC(N)=O)C(=O)N[C@@H](CCCNC(=N)N)C(=O)O)[C@@H](C)O)[C@@H](C)OP(=O)(O)O)[C@@H](C)O)[C@@H](C)O)[C@@H](C)O)[C@@H](C)O)C(C)C [compound 11] (Ac-EKNKNAN[pS]SPVASTTPSASATTNPASA[pT]TLDQSKAWNR-OH) |  |  | 0.58 ± 0.01 |  |  | ~500 fold |  |
| KNANSpSPVA [compound 6, APN 39–47 pSer^44 peptide KNANSpSPVA, negative control] |  |  |  |  |  |  | did not show any binding |

Reference: article PMC7939381, “MMP activation–associated aminopeptidase N reveals a bivalent 14-3-3 binding motif” (The Journal of Biological Chemistry, 2021)
